Entries after “also recorded” stand apart in the source; their conditions may differ.
Tests used:
synaptophysin = assay: Synaptophysin immunoreactivity in hippocampal CA1 region; format: in vivo, mouse; settings: CA1 layer of hippocampus, hAPP mice, vs placebo
Description: For histomorphological analyses, 8 to 15 histological sections (10 μm) were prepared from one hemisphere of 12 animals (6 placebo, 6 CP-113,818; 3 male, 3 female per group). Number and surface area of amyloid plaques were evaluated in both cortex and hippocampus. 6E10 (Signet; 1:5000; monoclonal) as primary antibody, and Cy™3 fluorescent goat anti-mouse IgG as secondary antibody (Jackson Immuno Research) were used for Aβ staining. Sections of the same brains were also used for synaptophysin staining (Chemicon; 1:5000; monoclonal). Synaptophysin immunoreactive spots were counted by light microscopy in the hippocampal CA1 region. The estimation of immunohistochemical reactions was done by computer-assisted quantification (IMAGE PRO PLUS, Media Cybernetics).

endogenous APP = assay: Western blot of endogenous APP processing in brains of non-transgenic littermates; format: in vivo, mouse
Description: For Western blot analyses, frozen hemispheres of non-transgenic littermates were homogenized in TBS buffer containing 5 mM EDTA, 1 mM 1,10-phenanthroline (ICN Biomedicals), 20 μM ALLN (BioMol) and a protease inhibitor mixture (Roche). Homogenates were centrifuged at 100000 g for 1 hour at +4° C. The supernatants were used for analyses of secreted APP forms and ApoE, while the pellets extracted with the homogenization buffer containing 1% Triton X-100 and 0.2% SDS. 120 μg of total protein were resolved on 4-12% or 12% NuPAGE Bis-Tris gels (Invitrogen) under reducing conditions, and Western blots were performed as described previously (Puglielli et al., 2001). For analysis of Notch-ICD (NICD), 250 μg of total protein was immunoprecipitated with an NICD-specific antibody (cleavage site (Val1744)-specific; Cell Signaling Technology) according to manufacturer's recommendations. Antibodies used for Western blots were R1736 (specific for sAPP-α; a gift from Dr. D. J. Selkoe, Brigham and Women's Hospital, Boston, Mass.), Abl4 (PS 1-NTF; a gift from Dr. S. E. Gandy, Thomas Jefferson University, Philadelphia, Pa.), Pen2 (a gift from Dr. S. S. Sisodia, University of Chicago, Chicago, Ill.), N-Cadherin (C32, C-terminal; BD Transduction Laboratories), ApoE (Santa Cruz Biotechnology), β-tubulin (Sigma), BACE1 and Nicastrin (Affinity BioReagents). Rbt×APP (CTF), 22C11 (APP-NTF) and Rbt×PSI (PS 1-CTF) were from Chemicon International. BACE stainings (N-terminal; Affinity BioReagents) were confirmed with two additional antibodies; Ms×BACE1 (Chemicon International) and BACE (C-terminal; Affinity BioReagents). Densitometric analyses were performed using the QuantityOne software package (Bio-Rad). Statistical significance was determined by Student's t test. For Western blot analyses shown in supplemental figures, neutralized formic acid fractions (approximately 100 μg of total protein) were precipitated by adding 50% trichloroacetic acid to 15.5% final concentration. After 30 min incubation and centrifugation at 4° C., the pellets were solubilized by adding 10 μl of 2M Tris base and 10 μl of 4×LDS-PAGE loading buffer (NuPage, Invitrogen). Before loading, the samples were incubated for 30 min at 37° C., freeze-thawed once and boiled. Western blot analysis was performed as described above.
Our previous cell-based studies have shown that ACAT inhibition reduces Aβ generation and alters APP processing by all three secretases (Puglielli et al., 2001). To determine whether CP-113,818 treatment modified brain APP processing in hAPP mice, we initially resolved formic acid-extracted brain proteins by SDS-PAGE to detect APP and its proteolytic derivatives. […]

SMILES: CCCCCCCC[C@H](SCCCCCC)C(=O)Nc1c(SC)cc(C)nc1SC [CP-113,818]
- synaptic density as synaptophysin immunoreactivity (synaptophysin): did not induce significant changes; also recorded: unchanged
- decrease in the ratio between total sAPP and sAPPα (endogenous APP): 36%
- decrease of endogenous mouse APP-CTF levels (endogenous APP; brain lysates, normalized to APP holoprotein, vs placebo): 44%
- reduction of total sAPP (endogenous APP; soluble TBS fraction): 19.1%
- decrease of sAPPα (endogenous APP; soluble TBS fraction, trend, n.s.): 3.4%

Source: patent US20050118226A1, “Methods for treating ACAT-related diseases” (priority 2003, published 2005)
